Reference: patent publication US12692302B2, “Uses of IL-13 antagonists for treating atopic dermatitis” (Genentech, Inc., priority 2016, dated 2026)

Tested on: atopic dermatitis patients
Experiment: Atopic dermatitis longitudinal PK-PD model of lebrikizumab (EASI score) and simulated dosing regimens
Parameters: species or system human
Settings: PK-PD model fitted to EASI scores up to 12 weeks from Clinical Study I
Source text: In FIG. 5, R(t) is the EASI score; Kin0 is the baseline disease progression rate constant; kin is the disease progression rate constant with lebrikizumab and including the placebo/TCS effect; Edrug is the lebrikizumab drug effect on disease progression inhibition; Econ is the placebo/TCS effect (constant overtime); Emax is the maximum lebrikizumab drug effect on disease progression inhibition; EC50 is the lebrikizumab concentration that leads to 50% of Emax; kout is the tissue repair rate constant; R(t=0) is the baseline EASI score; IIV is the inter-individual variability; ωkout is the inter-individual variability for kout; ωEcon is the inter-individual variability for Econ; ρKoutXEcon is the correlation between kout and Econ; and σ is the residual error.
The model was used to simulate the predicted efficacy, e.g., EASI-75 score, of various alternative dosing regimens, for example, including but not limited to, various loading doses followed subsequently by various maintenance doses, e.g., flat doses of lebrikizumab administered at regular time intervals, or various lower flat doses or higher flat doses, or increased treatment intervals with lebrikizumab.
The model development began with raw pharmacokinetic and efficacy data that had been collected during the conduct of the Phase II Clinical Study I described above. […]

Question: Which results are given for “lebrikizumab: monoclonal humanized anti-IL-13 IgG4 antibody; heavy chain SEQ ID NO: 11, light chain SEQ ID NO: 12; formulated at 125 mg/mL in prefilled syringe”?
Answer: EC50 (lebrikizumab concentration that leads to 50% of Emax), estimate: 8.08 µg/mL; Emax (maximum lebrikizumab drug effect on disease progression inhibition), estimate: 0.729
